Experimental data published in patent US20040071768A1, “Compositions and methods for treating cancer” (Inex Pharmaceuticals Corporation, priority 1999, published 2004).
Where two headings read alike, the source gives them in different places.

Key:
[1] = Vinorelbine tolerability, multiple dosing (q7d x 3), nude mice; format: in vivo, NCr nu/nu mice; conditions: Nudes
[2] = for DRD: ICR
Experimental: Single and multiple (q7dx3) dose MTD studies were performed in tumor-bearing and non-tumor bearing NCr nu/nu mice, as well as healthy, outbred ICR mice.
A comparative (VRL vs. liposomal VRL) toxicity study was performed in healthy, outbred ICR mice.
Parameters evaluated throughout the study included animal weight loss, physical appearance and behavioral changes, blood analysis (CBC and serum chemistry panel), hematopoietic progenitor cell levels in femur bone marrow, and organ weights and gross pathology. Tissues were collected and stored for histology as required.

HT29 colon xenografts [3] = test: Single dose anti-tumor activity, HT29 colon xenograft; format: in vivo; conditions: HT-29
Experimental: Female NCr nude mice were injected intravenously via the lateral tail vein on day 12 post-tumor-implantation with saline (♦), NVB at 30.0 mg/kg (◯) and 25.5 mg/kg (□), or NVB-TCS at 15.0 mg/kg (●) and 11.0 mg/kg (▪) at a drug-to-lipid ratio of 0.3:1 (w/w). The arrow on the x-axis denotes the day of drug administration. Data points represent mean±SEM (n=7). […]
(§1) Tumor models investigated included RXF393 (renal), MX-1 (breast), LX-1 (small cell lung cancer), PC-3 (prostate), and HT29 (colon). These models were known to be sensitive to vinorelbine. Tumor fragments were implanted subcutaneously in the flank of NCr nu/nu mice. […] Animal weights and tumor size were determined twice weekly.

PC3 prostate xenografts = test: Single dose anti-tumor activity, PC3 prostate xenograft; format: in vivo; conditions: PC-3
Experimental: Male NCr nude mice were injected intravenously via the lateral tail vein on day 9 post-tumor-implantation with saline (♦), NVB at 45.0 mg/kg (◯) and 34.0 mg/kg (□), or NVB-TCS at 15.0 mg/kg (●) and 11.0 mg/kg (▪) at a drug-to-lipid ratio of 0.3:1 (w/w). The arrow on the x-axis denotes the day of drug administration. Data points represent mean±SEM (n=10).
Vinorelbine is used clinically in the treatment of advanced NSCLC and metastatic breast cancer.
as §1

MX-1 breast xenografts = tested on: MX-1 breast xenografts
Experimental: (§2) Female NCr nude mice were injected intravenously (q7dx3) via the lateral tail vein on days indicated by an asterisk (*). […] Drug-to-lipid ratio was 0.3/1 (w/w). Data points represent median tumor volume (n=6).
(§3) The anti-tumor activity of multiple (q7d3) dose schedules of liposomal vinorelbine was evaluated in several human xenograft tumor models. The goal of this series of studies was to identify the benefits of encapsulation by evaluating a series of doses and determining the therapeutic index in several xenograft models. Models were selected based on the following criteria: (1) activity in the single dose studies, (2) a comprehensive literature review of vinca alkaloid efficacy, (3) a desire to include at least 2-3 models that represent the clinical use of vinorelbine, and (4) a desire to include models with a range of sensitivity to vinorelbine so that improvements resulting from the use of the liposome formulation might be identified. Based on these criteria, MX-1 and MDA-MB-435 breast models, the NCl-H460 NSCLC model and the HT-29 and DLD-1 colon models were chosen.
(§4) Therapeutic index (TI) is a parameter that quantifies the “safety factor” of a particular therapy. TI is a ratio of a toxicity parameter and a biological activity parameter. Therefore, a higher ratio represents a greater potential margin of safety. For these studies, TI is defined as follows: […]
(§5) The minimal effective dose (MED) was set according to NCl activity criteria as the dose resulting in an optimal % T/C of 40. This information was derived from Table 7.

HT29 colon xenografts [4] = test: Multiple dose (q7dx3) anti-tumor activity, HT29 colon xenograft; conditions: HT-29; for TF (tumor free animals at the end of study): n=6
Experimental: as §2, §3, §4, §5

For `CCC1=C[C@@H]2CN(C1)Cc1c([nH]c3ccccc13)[C@@](C(=O)OC)(c1cc3c(cc1OC)N(C)[C@H]1[C@@](O)(C(=O)OC)[C@H](OC(C)=O)[C@]4(CC)C=CCN5CC[C@]31[C@@H]54)C2` [VRL, 5′-noranhydrovinblastine], the DRD ([1]; 5 mg/kg q7d x 3) was 0/30, the DRD ([1]; 10 mg/kg q7d x 3) was 0/37 and the DRD ([1]; 20 mg/kg q7d x 3) was 2/37. For the same compound, the DRD ([1]; 25 mg/kg q7d x 3) was 0/7, the DRD ([1]; 30 mg/kg q7d x 3) was 6/18 and the DRD ([2]; 5 mg/kg q7d x 3) was 0/15. For the same compound, the DRD ([2]; 10 mg/kg q7d x 3) was 0/15, the DRD ([2]; 20 mg/kg q7d x 3) was 0/15 and the DRD ([2]; 25 mg/kg q7d x 3) was 1/15. The Granulocytopenia ([2]; mouse, in vivo) was “significant”, the neutrophil population ([2]; mouse, in vivo) was “almost completely abolished” and the spleen weights ([2]; mouse, in vivo) was “Decreased spleen weights”. The “Max % Wt Loss” value ([2]; mouse, in vivo, 5 mg/kg) was “+”, the “Max % Wt Loss” value ([2]; mouse, in vivo, 10 mg/kg) was −3% and the “Max % Wt Loss” value ([2]; mouse, in vivo, 20 mg/kg) was −3%. The “Max % Wt Loss” value ([2]; mouse, in vivo, 25 mg/kg) was −5%, the “% T/C (optimal % T/C following final treatment)” value (HT29 colon xenografts [3]; single i.v. dose 25.5 mg/kg) was 35% and the “DRD (drug related deaths)” value (HT29 colon xenografts [3]; single i.v. dose 25.5 mg/kg) was 0/7. For the same compound, the “MWL (maximum mean weight loss per treatment group)” value (HT29 colon xenografts [3]; single i.v. dose 25.5 mg/kg) was −9.8, the “NCI Score” value (HT29 colon xenografts [3]; single i.v. dose 25.5 mg/kg) was 1 and the “T-C (tumor growth delay to 1000 mm^3)” value (HT29 colon xenografts [3]; single i.v. dose 25.5 mg/kg) was 12. The “TF (tumor free animals at the end of study)” value (HT29 colon xenografts [3]; single i.v. dose 25.5 mg/kg) was 1/7, the “% T/C (optimal % T/C following final treatment)” value (HT29 colon xenografts [3]; single i.v. dose 30 mg/kg) was 31% and the “DRD (drug related deaths)” value (HT29 colon xenografts [3]; single i.v. dose 30 mg/kg) was 0/7. For the same compound, the “MWL (maximum mean weight loss per treatment group)” value (HT29 colon xenografts [3]; single i.v. dose 30 mg/kg) was −9.3, the “NCI Score” value (HT29 colon xenografts [3]; single i.v. dose 30 mg/kg) was 1 and the “T-C (tumor growth delay to 1000 mm^3)” value (HT29 colon xenografts [3]; single i.v. dose 30 mg/kg) was 9. The “TF (tumor free animals at the end of study)” value (HT29 colon xenografts [3]; single i.v. dose 30 mg/kg) was 1/7, the “% T/C (optimal % T/C following final treatment)” value (PC3 prostate xenografts; single i.v. dose 34 mg/kg) was −3% and the “DRD (drug related deaths)” value (PC3 prostate xenografts; single i.v. dose 34 mg/kg) was 2/10. The “MWL (maximum mean weight loss per treatment group)” value (PC3 prostate xenografts; single i.v. dose 34 mg/kg) was −18.7, the “NCI Score” value (PC3 prostate xenografts; single i.v. dose 34 mg/kg) was 2 and the “T-C (tumor growth delay to 1000 mm^3)” value (PC3 prostate xenografts; single i.v. dose 34 mg/kg) was 34. For the same compound, the “TF (tumor free animals at the end of study)” value (PC3 prostate xenografts; single i.v. dose 34 mg/kg) was 1/8, the “% T/C (optimal % T/C following final treatment)” value (PC3 prostate xenografts; single i.v. dose 45 mg/kg) was “Toxic” and the “DRD (drug related deaths)” value (PC3 prostate xenografts; single i.v. dose 45 mg/kg) was 5/10. For the same compound, the “MWL (maximum mean weight loss per treatment group)” value (PC3 prostate xenografts; single i.v. dose 45 mg/kg) was −25.4, the “TF (tumor free animals at the end of study)” value (PC3 prostate xenografts; single i.v. dose 45 mg/kg) was 4/5 and the “% T/C (optimal % T/C following final treatment)” value (MX-1 breast xenografts; 5 mg/kg i.v. q7dx3) was 100%. For the same compound, the “DRD (drug related deaths, n = 6)” value (MX-1 breast xenografts; 5 mg/kg i.v. q7dx3) was 0, the “NCI Score” value (MX-1 breast xenografts; 5 mg/kg i.v. q7dx3) was 0 and the “T-C (tumor growth delay to 1000 mm^3)” value (MX-1 breast xenografts; 5 mg/kg i.v. q7dx3) was 0. The “TF (tumor free animals at the end of study)” value (MX-1 breast xenografts; 5 mg/kg i.v. q7dx3, n=6) was 0, the “% T/C (optimal % T/C following final treatment)” value (MX-1 breast xenografts; 10 mg/kg i.v. q7dx3) was 38% and the “DRD (drug related deaths, n = 6)” value (MX-1 breast xenografts; 10 mg/kg i.v. q7dx3) was 0. The “NCI Score” value (MX-1 breast xenografts; 10 mg/kg i.v. q7dx3) was 1, the “T-C (tumor growth delay to 1000 mm^3)” value (MX-1 breast xenografts; 10 mg/kg i.v. q7dx3) was 7.3 and the “TF (tumor free animals at the end of study)” value (MX-1 breast xenografts; 10 mg/kg i.v. q7dx3, n=6) was 0. For the same compound, the “% T/C (optimal % T/C following final treatment)” value (MX-1 breast xenografts; 20 mg/kg i.v. q7dx3) was −28%, the “DRD (drug related deaths, n = 6)” value (MX-1 breast xenografts; 20 mg/kg i.v. q7dx3) was 0 and the “NCI Score” value (MX-1 breast xenografts; 20 mg/kg i.v. q7dx3) was 3. For the same compound, the “T-C (tumor growth delay to 1000 mm^3)” value (MX-1 breast xenografts; 20 mg/kg i.v. q7dx3) was 28.5, the “TF (tumor free animals at the end of study)” value (MX-1 breast xenografts; 20 mg/kg i.v. q7dx3, n=6) was 0 and the “% T/C (optimal % T/C following final treatment)” value (HT29 colon xenografts [4]; 5 mg/kg i.v. q7dx3) was 67%. The “DRD (drug related deaths, n = 6)” value (HT29 colon xenografts [4]; 5 mg/kg i.v. q7dx3) was 0, the “NCI Score” value (HT29 colon xenografts [4]; 5 mg/kg i.v. q7dx3) was 0 and the “T-C (tumor growth delay to 1000 mm^3)” value (HT29 colon xenografts [4]; 5 mg/kg i.v. q7dx3) was 1.32. For the same compound, the “TF (tumor free animals at the end of study)” value (HT29 colon xenografts [4]; 5 mg/kg i.v. q7dx3) was 0, the “% T/C (optimal % T/C following final treatment)” value (HT29 colon xenografts [4]; 10 mg/kg i.v. q7dx3) was 5% and the “DRD (drug related deaths, n = 6)” value (HT29 colon xenografts [4]; 10 mg/kg i.v. q7dx3) was 0. For the same compound, the “NCI Score” value (HT29 colon xenografts [4]; 10 mg/kg i.v. q7dx3) was 1, the “T-C (tumor growth delay to 1000 mm^3)” value (HT29 colon xenografts [4]; 10 mg/kg i.v. q7dx3) was 11.9 and the “TF (tumor free animals at the end of study)” value (HT29 colon xenografts [4]; 10 mg/kg i.v. q7dx3) was 0. The “% T/C (optimal % T/C following final treatment)” value (HT29 colon xenografts [4]; 20 mg/kg i.v. q7dx3) was −65%, the “DRD (drug related deaths, n = 6)” value (HT29 colon xenografts [4]; 20 mg/kg i.v. q7dx3) was 0 and the “NCI Score” value (HT29 colon xenografts [4]; 20 mg/kg i.v. q7dx3) was 3. The “T-C (tumor growth delay to 1000 mm^3)” value (HT29 colon xenografts [4]; 20 mg/kg i.v. q7dx3) was 29.3 and the “TF (tumor free animals at the end of study)” value (HT29 colon xenografts [4]; 20 mg/kg i.v. q7dx3) was 1.
